Tested on: thrombi formed from blood of a healthy adult
Test: Thrombolytic activity by the Chandler's loop method
Type: biochemical, human
Details: 60 minutes, 37° C.
Description: Determination of the thrombolytic activity by the Chandler's loop method: the test solution and control solution were prepared by dissolving the protease and urokinase (a product by Otsuka Seiyaku Co.), respectively, in a physiological saline solution. […] The reference solution for the blank test was the physiological saline solution.
Formation of thrombi and measurement of the dissolution thereof were performed in the following manner. Thus, 0.8 ml of the above obtained fresh blood admixed with sodium citrate and 0.1 ml of a 3% aqueous solution of calcium chloride as CaCl2 ·2H2 O were introduced into a tube of polyvinyl chloride resin having an inner diameter of 3 mm and a length of 250 mm and the ends of the tube were connected to each other to form a loop which was put coaxially on a turntable inclined at an angle of 60° and rotated at 37° C. for 30 minutes at a velocity of 17 r.p.m. to form thrombi therein. Thereafter, 0.1 ml of one of the protease solutions, the urokinase solution or the reference solution was introduced into the loop which was rotated under the same conditions as above for 60 minutes. The thrombi remaining in the tube were then taken out and, after fixing with a Bouin's reagent, i.e. a solution prepared by adding 25 ml of a commercially available formalin solution and 5 ml of glacial acetic acid to 75 ml of a saturated aqueous solution of picric acid, the weight of the wet thrombi was measured.

Urokinase
% Thrombolysis (concentration in blood 50 Iu/ml blood): 8.0% | % Thrombolysis (concentration in blood 100 Iu/ml blood): 39.8% | % Thrombolysis (concentration in blood 150 Iu/ml blood): 49.7% | % Thrombolysis (concentration in blood 200 Iu/ml blood): 60.3% | % Thrombolysis (concentration in blood 250 Iu/ml blood): 66.4%

Source: US4568545A, “Thrombolytic agent” (Amano Seiyaku Kabushiki Kaisha, priority 1982, dated 1986)
